The test system of assay [1] is MLKL phosphorylation in HT29-L23 human colorectal adenocarcinoma cells. The experiment in a line: MLKL Phosphorylation High-Content Assay. The assay is classed as cell-based. The settings on record: Homo sapiens. The essentials:
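Cells incubated six hours at 37° C., then phospho-MLKL (S358) immunostained overnight at 4° C. and imaged by high-content microscopy. Phosphorylation quantified as mean circ-ring average intensity ratio; IC50 and Ymax from 4-parameter logistic fits.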

Assay [2] concerns the target T1, His-GST-TVMV-hRIPK1(1-324) (Homo sapiens, UniProt Q13546).
T1 construct: The coding region of human RIPK1(1-324) flanked by NdeI site at 5′ end; made in house; host or cells: Spodoptera frugiperda (Sf9) insect cells, baculovirus
T1 sequence (Q13546 1-324): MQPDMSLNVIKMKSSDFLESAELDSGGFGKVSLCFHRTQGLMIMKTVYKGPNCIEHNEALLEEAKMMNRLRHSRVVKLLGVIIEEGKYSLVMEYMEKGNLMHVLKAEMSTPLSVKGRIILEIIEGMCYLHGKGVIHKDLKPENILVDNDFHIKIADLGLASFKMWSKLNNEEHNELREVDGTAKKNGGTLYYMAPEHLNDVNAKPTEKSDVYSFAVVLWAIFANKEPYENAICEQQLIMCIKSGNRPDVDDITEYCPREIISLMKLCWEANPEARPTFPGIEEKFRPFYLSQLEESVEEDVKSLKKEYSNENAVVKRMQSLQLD
Put plainly: RIPK1 HTRF Binding Assay. In general terms: In TR-FRET formats the signal depends on donor and acceptor labels being close together.

The mark [3] stands for this setting: x marks IC50 class <20 nM, read-out: pMLKL cell activity <20 nM.
Where [4] appears, read: x marks IC50 class <20 nM, read-out: RIPK1 HTRF binding <20 nM.
The mark [5] stands for this setting: x marks IC50 class >200 nM, read-out: pMLKL cell activity >200 nM.
Setting [6] is: x marks IC50 class 20-200 nM, read-out: pMLKL cell activity 20-200 nM.
The mark [7] stands for this setting: x marks IC50 class 20-200 nM, read-out: RIPK1 HTRF binding 20-200 nM.

Like-named read-outs stand apart in the source and are kept apart here. A value given as a limit tells only on which side of the number the result lay.

For the molecule `COc1ncc(-c2ccn3nc(N)nc3c2)cc1C(=O)NCc1ccccc1Oc1ccc(F)cc1` [Example 110, 5-{2-amino-[1,2,4]triazolo[1,5-a]pyridin-7-yl}-N-{[2-(4-fluorophenoxy)phenyl]methyl}-2-methoxypyridine-3-carboxamide], the IC50 in assay [1] (setting [3]) and in assay [2] (setting [4]) was under 20 nM throughout.
Take `COc1ncc(-c2ccn3nc(N)nc3c2)cc1C(=O)NCc1ccccc1S(=O)(=O)N1CCCCCC1` [Example 111, 5-{2-amino-[1,2,4]triazolo[1,5-a]pyridin-7-yl}-N-{[2-(azepane-1-sulfonyl)phenyl]methyl}-2-methoxypyridine-3-carboxamide]: the IC50 in assay [1] (setting [5]) was over 200 nM; in assay [2] (setting [4]) it was under 20 nM.
For `COc1ncc(-c2ccn3nc(N)nc3c2)cc1C(=O)N1CCC[C@@H](Cc2cccc(F)c2)C1` [Example 114, 7-{5-[(3S)-3-[(3-fluorophenyl)methyl]piperidine-1-carbonyl]-6-methoxypyridin-3-yl}-[1,2,4]triazolo[1,5-a]pyridin-2-amine], the IC50 in assay [1] (setting [3]) and in assay [2] (setting [4]) was under 20 nM each time.
On to `COc1ncc(-c2ccn3nc(N)nc3c2)cc1C(=O)NCc1ccccc1OC1CCOCC1` [Example 115, 5-{2-amino-[1,2,4]triazolo[1,5-a]pyridin-7-yl}-2-methoxy-N-{[2-(oxan-4-yloxy)phenyl]methyl}pyridine-3-carboxamide], for which the IC50 in assay [1] (setting [3]) and in assay [2] (setting [4]) was under 20 nM each time.
Take `COc1ncc(-c2ccn3nc(N)nc3c2)cc1C(=O)NCc1cc(C(F)(F)F)ccc1F` [Example 116, 5-{2-amino-[1,2,4]triazolo[1,5-a]pyridin-7-yl}-N-{[2-fluoro-5-(trifluoromethyl)phenyl]methyl}-2-methoxypyridine-3-carboxamide]: the IC50 in assay [1] (setting [6]) and in assay [2] (setting [7]) was 20 to 200 nM in each case.
Consider `COc1ncc(-c2ccn3nc(N)nc3c2)cc1C(=O)N1CCCC(Cc2ccc(Cl)cc2)C1` (stereo not drawn) [Example 117, 7-(5-{3-[(4-chlorophenyl)methyl]piperidine-1-carbonyl}-6-methoxypyridin-3-yl)-[1,2,4]triazolo[1,5-a]pyridin-2-amine], for which the figures for the IC50 in assay [1] (setting [5]) and in assay [2] (setting [7]) were over 200 nM and 20 to 200 nM, respectively.
For `COc1ncc(-c2ccn3nc(N)nc3c2)cc1C(=O)N1CCCC(Cc2cccc(F)c2)C1` (stereo not drawn) [Example 118, 7-(5-{3-[(3-fluorophenyl)methyl]piperidine-1-carbonyl}-6-methoxypyridin-3-yl)-[1,2,4]triazolo[1,5-a]pyridin-2-amine], the IC50 in assay [1] (setting [6]) and in assay [2] (setting [7]) was 20 to 200 nM in each case.
Regarding `COc1ncc(-c2ccn3nc(N)nc3c2)cc1C(=O)NCc1cccc(C(F)(F)F)c1` [Example 119, 5-{2-amino-[1,2,4]triazolo[1,5-a]pyridin-7-yl}-2-methoxy-N-{[3-(trifluoromethyl)phenyl]methyl}pyridine-3-carboxamide], the figures for the IC50 in assay [1] (setting [5]) and in assay [2] (setting [7]) were over 200 nM and 20 to 200 nM, respectively.
On to `COc1ccc(CC2CCCN(C(=O)c3cc(-c4ccn5nc(N)nc5c4)cnc3OC)C2)cc1` (stereo not drawn) [Example 120, 7-(6-methoxy-5-{3-[(4-methoxyphenyl)methyl]piperidine-1-carbonyl}pyridin-3-yl)-[1,2,4]triazolo[1,5-a]pyridin-2-amine], for which the IC50 in assay [1] (setting [6]) and in assay [2] (setting [7]) was 20 to 200 nM throughout.
Take `COc1ncc(-c2ccn3nc(N)nc3c2)cc1C(=O)N1CCCC(Cc2ccc(C)cc2)C1` (stereo not drawn) [Example 121, 7-(6-methoxy-5-{3-[(4-methylphenyl)methyl]piperidine-1-carbonyl}pyridin-3-yl)-[1,2,4]triazolo[1,5-a]pyridin-2-amine]: the IC50 in assay [1] (setting [6]) and in assay [2] (setting [7]) was 20 to 200 nM throughout.
For the molecule `COc1ncc(-c2ccn3nc(N)nc3c2)cc1C(=O)NCc1c(F)cc(F)cc1OCC1CCCC1` [Example 122, 5-{2-amino-[1,2,4]triazolo[1,5-a]pyridin-7-yl}-N-{[2-(cyclopentylmethoxy)-4,6-difluorophenyl]methyl}-2-methoxypyridine-3-carboxamide], the IC50 in assay [1] (setting [6]) is 20 to 200 nM; in assay [2] (setting [4]) it was under 20 nM.
In the same order, the values of `COc1ncc(-c2ccn3nc(N)nc3c2)cc1C(=O)NCc1ccccc1OCC1CCCCC1` [Example 123, 5-{2-amino-[1,2,4]triazolo[1,5-a]pyridin-7-yl}-N-{[2-(cyclohexylmethoxy)phenyl]methyl}-2-methoxypyridine-3-carboxamide] are 20 to 200 nM and under 20 nM.
In the same order, the values of `COc1ncc(-c2ccn3nc(N)nc3c2)cc1C(=O)NCc1ncccc1OCC1CCCC1` [Example 124, 5-{2-amino-[1,2,4]triazolo[1,5-a]pyridin-7-yl}-N-{[3-(cyclopentylmethoxy)pyridin-2-yl]methyl}-2-methoxypyridine-3-carboxamide] are 20 to 200 nM and under 20 nM.
For `COc1ncc(-c2ccn3nc(N)nc3c2)cc1C(=O)NCc1ccccc1OC(C)C1CCCC1` (stereo not drawn) [Example 125, 5-{2-amino-[1,2,4]triazolo[1,5-a]pyridin-7-yl}-N-{[2-(1-cyclopentylethoxy)phenyl]methyl}-2-methoxypyridine-3-carboxamide], the figures for the IC50 in assay [1] (setting [6]) and in assay [2] (setting [4]) were 20 to 200 nM and under 20 nM, respectively.
In the same order, the values of `COc1ncc(-c2ccn3nc(N)nc3c2)cc1C(=O)NCc1c(F)cccc1OCC1CCCC1` [Example 126, 5-{2-amino-[1,2,4]triazolo[1,5-a]pyridin-7-yl}-N-{[2-(cyclopentylmethoxy)-6-fluorophenyl]methyl}-2-methoxypyridine-3-carboxamide] are 20 to 200 nM and under 20 nM.
In the same order, the values of `COc1ncc(-c2ccn3nc(N)nc3c2)cc1C(=O)NCc1cccnc1OCC1CCCC1` [Example 127, 5-{2-amino-[1,2,4]triazolo[1,5-a]pyridin-7-yl}-N-{[2-(cyclopentylmethoxy)pyridin-3-yl]methyl}-2-methoxypyridine-3-carboxamide] are 20 to 200 nM and under 20 nM.
With `COc1ncc(-c2ccn3nc(N)nc3c2)cc1C(=O)NCc1cc(F)cc(F)c1OCC1CCCC1` [Example 128, 5-{2-amino-[1,2,4]triazolo[1,5-a]pyridin-7-yl}-N-{[2-(cyclopentylmethoxy)-3,5-difluorophenyl]methyl}-2-methoxypyridine-3-carboxamide], the IC50 in assay [1] (setting [3]) and in assay [2] (setting [4]) was under 20 nM in each case.
On to `COc1ncc(-c2ccn3nc(N)nc3c2)cc1C(=O)NCc1cc(F)ccc1OCC1CCCC1` [Example 129, 5-{2-amino-[1,2,4]triazolo[1,5-a]pyridin-7-yl}-N-{[2-(cyclopentylmethoxy)-5-fluorophenyl]methyl}-2-methoxypyridine-3-carboxamide], for which the IC50 was 20 to 200 nM in assay [1] (setting [6]) and under 20 nM in assay [2] (setting [4]).
`COc1ncc(-c2ccn3nc(N)nc3c2)cc1C(=O)NCc1ccc(F)cc1OCC1CCCC1` [Example 130, 5-{2-amino-[1,2,4]triazolo[1,5-a]pyridin-7-yl}-N-{[2-(cyclopentylmethoxy)-4-fluorophenyl]methyl}-2-methoxypyridine-3-carboxamide]: the IC50 is 20 to 200 nM in assay [1] (setting [6]) and under 20 nM in assay [2] (setting [4]).
On to `COc1ncc(-c2ccn3nc(N)nc3c2)cc1C(=O)NCc1ncccc1OCC1CC1` [Example 132, 5-{2-amino-[1,2,4]triazolo[1,5-a]pyridin-7-yl}-N-{[3-(cyclopropylmethoxy)pyridin-2-yl]methyl}-2-methoxypyridine-3-carboxamide], for which the IC50 in assay [1] (setting [6]) and in assay [2] (setting [7]) was 20 to 200 nM in each case.
For `CCc1ccccc1CNC(=O)c1cc(-c2ccn3nc(N)nc3c2)cnc1OC` [Example 133, 5-{2-amino-[1,2,4]triazolo[1,5-a]pyridin-7-yl}-N-[(2-ethylphenyl)methyl]-2-methoxypyridine-3-carboxamide], the values for the IC50 in assay [1] (setting [5]) and in assay [2] (setting [7]) were over 200 nM and 20 to 200 nM, respectively.
As to `COc1ncc(-c2ccn3nc(N)nc3c2)cc1C(=O)N1CCC[C@H](Cc2ccc(F)cc2)C1` [Example 134, 7-{5-[(3R)-3-[(4-fluorophenyl)methyl]piperidine-1-carbonyl]-6-methoxypyridin-3-yl}-[1,2,4]triazolo[1,5-a]pyridin-2-amine], the values for the IC50 in assay [1] (setting [3]) and in assay [2] (setting [7]) were under 20 nM and 20 to 200 nM, respectively.
As to `COc1ncc(-c2ccn3nc(N)nc3c2)cc1C(=O)NCc1cccnc1OC1CCCC1` [Example 135, 5-{2-amino-[1,2,4]triazolo[1,5-a]pyridin-7-yl}-N-{[2-(cyclopentyloxy)pyridin-3-yl]methyl}-2-methoxypyridine-3-carboxamide], the IC50 in assay [1] (setting [3]) and in assay [2] (setting [4]) was under 20 nM throughout.
Take `COc1ncc(-c2ccn3nc(N)nc3c2)cc1C(=O)NCc1cccnc1OCC1CCC1` [Example 137, 5-{2-amino-[1,2,4]triazolo[1,5-a]pyridin-7-yl}-N-{[2-(cyclobutylmethoxy)pyridin-3-yl]methyl}-2-methoxypyridine-3-carboxamide]: the IC50 in assay [1] (setting [6]) was 20 to 200 nM; in assay [2] (setting [4]) it was under 20 nM.

(Values after patent publication US10913738B2 (BRISTOL-MYERS SQUIBB COMPANY, priority 2017, dated 2021).)
